Results published in patent US8557833B2, “Aminopyrimidines useful as kinase inhibitors” (priority 2005, dated 2013).
Where two headings read alike, the source gives them in different places.

Tests used:
Assay type in all cases: biochemical
FLT-3 = target: T1, FLT-3 (Homo sapiens, UniProt P36888); assay: FLT-3 inhibition assay, radiometric filter-binding
T1 sequence (P36888 27-993): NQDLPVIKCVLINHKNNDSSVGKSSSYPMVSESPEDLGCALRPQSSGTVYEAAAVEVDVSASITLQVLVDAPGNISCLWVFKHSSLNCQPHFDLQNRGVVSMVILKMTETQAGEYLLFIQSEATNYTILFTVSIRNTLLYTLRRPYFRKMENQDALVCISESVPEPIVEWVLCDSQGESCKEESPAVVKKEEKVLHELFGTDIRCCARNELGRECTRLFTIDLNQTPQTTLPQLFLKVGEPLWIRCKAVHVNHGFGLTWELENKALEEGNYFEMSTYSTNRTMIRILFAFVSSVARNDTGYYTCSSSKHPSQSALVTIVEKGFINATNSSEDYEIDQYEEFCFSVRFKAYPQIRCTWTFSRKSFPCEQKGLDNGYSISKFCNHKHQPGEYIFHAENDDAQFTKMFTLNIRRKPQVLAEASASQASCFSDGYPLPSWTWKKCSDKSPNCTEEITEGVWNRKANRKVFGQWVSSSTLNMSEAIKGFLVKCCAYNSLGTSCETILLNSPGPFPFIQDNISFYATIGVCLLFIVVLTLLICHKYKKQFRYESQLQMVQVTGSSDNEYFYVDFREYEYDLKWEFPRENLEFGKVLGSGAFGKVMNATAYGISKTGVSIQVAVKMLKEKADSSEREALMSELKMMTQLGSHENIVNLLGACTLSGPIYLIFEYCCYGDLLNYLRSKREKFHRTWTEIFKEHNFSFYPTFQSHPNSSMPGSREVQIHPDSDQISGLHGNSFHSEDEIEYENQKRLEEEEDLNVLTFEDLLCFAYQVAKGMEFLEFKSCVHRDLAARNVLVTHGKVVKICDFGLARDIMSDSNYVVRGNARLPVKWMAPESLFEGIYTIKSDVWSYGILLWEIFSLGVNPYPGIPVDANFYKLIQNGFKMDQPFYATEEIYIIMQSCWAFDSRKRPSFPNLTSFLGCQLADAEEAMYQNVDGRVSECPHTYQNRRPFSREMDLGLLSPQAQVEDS
Experimental: This assay monitors the 33P incorporation into a substrate poly(Glu, Tyr) 4:1 (pE4Y). […] Final substrate concentrations in the assay were 90 μM ATP and 0.5 mg/ml pE4Y (both from Sigma Chemicals, St Louis, Mo.). […] Reactions were carried out at room temperature.
Two assay solutions were prepared. Solution 1 contains 100 mM HEPES (pH 7.5), 10 mM MgCl2, 25 mM NaCl, 1 mg/ml pE4Y and […] (containing 0.3 mCi of [γ-33^P]ATP for each reaction). Solution 2 contains 100 mM HEPES (pH 7.5), 10 mM MgCl2, 25 mM NaCl, 2 mM DTT, 0.02% BSA and 3 nM FLT-3. The assay was run on a 96 well plate by mixing 50 μl each of Solution 1 and […] of the compounds of the present invention. The reaction was initiated with Solution 2. […] All of the reaction volume was then transferred to a filter plate and washed with 5% TCA by a Harvester 9600 from TOMTEC (Hamden, Conn.). The amount of ^33P incorporation into pE4y was analyzed by a Packard Top Count Microplate Scintillation Counter (Meriden, Conn.). The data was fitted using Prism software to get an IC50 or Ki.

Aurora-1 (Aurora B) = Aurora-1 (Aurora B) (Homo sapiens, UniProt Q96GD4); assay: Aurora-1 (Aurora B) inhibition assay (radiometric)
Chain of Aurora-1 (Aurora B) (Q96GD4 whole entry): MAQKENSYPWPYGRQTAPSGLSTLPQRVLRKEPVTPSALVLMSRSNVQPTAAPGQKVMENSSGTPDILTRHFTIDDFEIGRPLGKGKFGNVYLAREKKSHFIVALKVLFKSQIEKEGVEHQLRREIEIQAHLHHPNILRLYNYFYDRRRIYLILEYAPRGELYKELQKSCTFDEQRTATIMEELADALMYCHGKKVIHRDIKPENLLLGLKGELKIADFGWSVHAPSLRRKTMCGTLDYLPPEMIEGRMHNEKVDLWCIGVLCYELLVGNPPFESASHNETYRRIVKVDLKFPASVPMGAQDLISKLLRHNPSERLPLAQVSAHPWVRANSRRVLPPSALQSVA
Experimental: An assay buffer solution was prepared which consisted of 25 mM HEPES (pH 7.5), 10 mM MgCl2, 0.1% BSA and 10% glycerol. […] To 22 μL of the Aurora-B solution, in a 96-well plate, was added 2 μl of a compound stock solution in DMSO and the mixture allowed to equilibrate for 10 minutes at 25° C. The enzyme reaction was initiated by the addition of 16 μl stock [γ-^33P]-ATP solution (˜20 nCi/μL) prepared in assay buffer, to a final assay concentration of 800 μM. The reaction was stopped after 3 hours by the addition of 16 μL 500 mM phosphoric acid and the levels of ^33P incorporation into the peptide substrate were determined by the following method.
A phosphocellulose 96-well plate (Millipore, Cat no. MAPHNOB50) was pre-treated with 100 μL of a 100 mM phosphoric acid prior to the addition of the enzyme reaction mixture (40 μL). The solution was left to soak on to the phosphocellulose membrane for 30 minutes and the plate subsequently washed four times with 200 μL of a 100 mM phosphoric acid. […] Levels of non-enzyme catalyzed background radioactivity were determined by adding 16 μL of the 500 mM phosphoric acid to control wells, containing all assay components (which acts to denature the enzyme), prior to the addition of the [γ-^33P]-ATP solution. Levels of enzyme catalyzed ^33P incorporation were calculated by subtracting mean background counts from those measured at each inhibitor concentration. […] Ki values were calculated from initial rate data by non-linear regression using the Prism software package (Prism 3.0, Graphpad Software, San Diego, Calif.).

Aurora-2 (Aurora A) = target: T2, Aurora-2 (Aurora A) (Homo sapiens, UniProt O14965); assay: Aurora-2 (Aurora A) inhibition assay, coupled enzyme
T2 sequence (O14965 1-403): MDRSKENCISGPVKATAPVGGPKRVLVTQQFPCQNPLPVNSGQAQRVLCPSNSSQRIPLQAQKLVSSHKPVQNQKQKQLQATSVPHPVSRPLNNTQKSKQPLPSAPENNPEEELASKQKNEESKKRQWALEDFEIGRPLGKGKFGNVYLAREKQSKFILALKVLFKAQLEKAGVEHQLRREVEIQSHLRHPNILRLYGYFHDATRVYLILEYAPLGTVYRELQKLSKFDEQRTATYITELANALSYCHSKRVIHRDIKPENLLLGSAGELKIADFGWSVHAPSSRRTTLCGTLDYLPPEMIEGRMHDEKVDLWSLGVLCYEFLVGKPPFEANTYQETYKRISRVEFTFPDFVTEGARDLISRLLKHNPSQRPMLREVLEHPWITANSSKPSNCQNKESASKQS
Experimental: Assays were carried out in a mixture of 100 mM Hepes (pH7.5), 10 mM MgCl2, 1 mM DTT, 25 mM NaCl, 2.5 mM phosphoenolpyruvate, 300 μM NADH, 30 μg/ml pyruvate kinase and 10 μg/ml lactate dehydrogenase. […] Assays were carried out at 30° C. and in the presence of 40 nM Aurora-2.
An assay stock buffer solution was prepared containing all of the reagents listed above, with the exception of Aurora-2 and the test compound of interest. […] The plate was preincubated for 10 minutes at 30° C. and the reaction initiated by addition of 10 μl of Aurora-2. Initial reaction rates were determined with a Molecular Devices SpectraMax Plus plate reader over a 10 minute time course. IC50 and Ki data were calculated from non-linear regression analysis using the Prism software package (GraphPad Prism version 3.0cx for Macintosh, GraphPad Software, San Diego Calif., USA).

[1] = 800 μM ATP, Kemptide, 25° C., read-out: Aurora B Ki
[2] = 400 μM ATP, 570 μM Kemptide, 30° C., 40 nM Aurora-2, read-out: Aurora A Ki
[3] = 90 μM ATP, 0.5 mg/ml pE4Y, room temperature, read-out: FLT-3 Ki

| Ki (FLT-3) | Ki (Aurora-1 (Aurora B); [1]) | Ki (Aurora-2 (Aurora A)) | Ki (Aurora-2 (Aurora A); [2]) | Ki (FLT-3; [3]) | Compound | Ki (Aurora-1 (Aurora B)) |
| --- | --- | --- | --- | --- | --- | --- |
| 170 nM | 11 nM | 0.67 nM |  |  | Cc1cc(Nc2cc(N3CCC3)nc(Sc3ccc(NC(=O)c4ccccc4OC(F)(F)F)cc3)n2)[nH]n1 [Compound I-8] |  |
| 550 nM | 6.5 nM |  | 0.78 nM |  | Cc1cc(Nc2cc(N3CCC3)nc(Sc3ccc(NC(=O)c4cc(Cl)ccc4Cl)cc3)n2)n[nH]1 [Compound I-21] |  |
|  | 14 nM |  | 0.87 nM | 70 nM | Cc1cc(Nc2cc(N3CCC3)nc(Sc3ccc(NC(=O)c4ccccc4C)cc3)n2)[nH]n1 [Compound I-5] |  |
| 100 nM | 6 nM |  | 0.65 nM |  | O=C(Nc1ccc(Sc2nc(Nc3cc(C4CC4)[nH]n3)cc(N3CCC3)n2)cc1)c1ccccc1Cl [Compound I-17] |  |
|  | 4.5 nM |  | 0.38 nM | 170 nM | Cc1cc(Nc2cc(N3CCC3)nc(Sc3ccc(NC(=O)c4ccccc4C(F)(F)F)cc3)n2)[nH]n1 [Compound I-14] |  |
| 540 nM | 19 nM | 1.4 nM |  |  | Cc1cc(Nc2cc(N3CCC3)nc(Sc3ccc(NC(=O)c4cccc(Cl)c4)cc3)n2)n[nH]1 [Compound I-12] |  |
| 110 nM | 7 nM | 0.71 nM |  |  | Cc1cc(Nc2cc(N3CCC3)nc(Sc3ccc(NC(=O)c4c(Cl)cccc4Cl)cc3)n2)n[nH]1 [Compound I-11] |  |
|  | 7 nM |  | 1 nM | 100 nM | Cc1cc(Nc2cc(N3CCC3)nc(Sc3ccc(NC(=O)c4ccccc4Cl)cc3)n2)[nH]n1 [Compound I-1, N-{4-[4-Azetidin-1-yl-6-(5-methyl-2H-pyrazol-3-ylamino)-pyrimidin-2-ylsulfanyl]-phenyl}-2-chloro-benzamide] |  |
|  | 6.5 nM |  | 1.9 nM | 180 nM | Cc1cc(Nc2cc(N3CCC3)nc(Sc3ccc(NC(=O)c4c(F)cccc4F)cc3)n2)[nH]n1 [Compound I-2, N-{4-[4-Azetidin-1-yl-6-(5-methyl-2H-pyrazol-3-ylamino)-pyrimidin-2-ylsulfanyl]-phenyl}-2,6-Difluoro-benzamide] |  |
| 160 nM | 7.5 nM | 0.76 nM |  |  | Cc1cc(Nc2cc(N3CCC3)nc(Sc3ccc(NC(=O)c4cccc(Cl)c4F)cc3)n2)n[nH]1 [Compound I-15] |  |
| 330 nM |  | 2.5 nM |  |  | Cc1cccc(C(=O)Nc2ccc(Sc3nc(Nc4cc(C)[nH]n4)cc(N4CCC4)n3)cc2)c1 [Compound I-4] | 24 nM |
| 190 nM | < 6 nM | < 0.35 nM |  |  | CCc1cccc(C(=O)Nc2ccc(Sc3nc(Nc4cc(C)[nH]n4)cc(N4CCC4)n3)cc2)c1Cl [Compound I-22] |  |
| 240 nM | 6 nM | 0.77 nM |  |  | Cc1cc(Nc2cc(N3CCC3)nc(Sc3ccc(NC(=O)c4cccc(C)c4Cl)cc3)n2)n[nH]1 [Compound I-20] |  |
|  | 19 nM |  | 1.2 nM | 160 nM | Cc1cc(Nc2cc(N3CCC3)nc(Sc3ccc(NC(=O)c4ccccc4C(F)F)cc3)n2)[nH]n1 [Compound I-19] |  |
| 120 nM | 26 nM | 3 nM |  |  | COc1ccccc1C(=O)Nc1ccc(Sc2nc(Nc3cc(C)[nH]n3)cc(N3CCC3)n2)cc1 [Compound I-6] |  |

| Compound | Ki (FLT-3) | Ki (Aurora-1 (Aurora B); [1]) | Ki (Aurora-2 (Aurora A)) | Ki (Aurora-2 (Aurora A); [2]) | Ki (FLT-3; [3]) | Ki (Aurora-1 (Aurora B)) |
| --- | --- | --- | --- | --- | --- | --- |
| Cc1cc(Nc2cc(N3CCC3)nc(Sc3ccc(NC(=O)c4ccccc4F)cc3)n2)[nH]n1 [Compound I-3] |  | 10 nM |  | 2.2 nM | 220 nM |  |
| Cc1cc(Nc2cc(N3CCC3)nc(Sc3ccc(NC(=O)c4cccc(C(F)(F)F)c4F)cc3)n2)n[nH]1 [Compound I-13] | 350 nM |  | 0.35 nM |  |  | 6 nM |
